Assay results taken from patent US20080227128A1, “Resonance Energy Transfer System and Method” (Mount Sinai School of Medicine of New York University, priority 2004, published 2008).
Like-named read-outs stand apart in the source and are kept apart here. One block for each compound: values may come before it. *: point of attachment. Biotin = O=C1N[C@H]2[C@H](CS[C@H]2CCCCC(=O)*)N1

What was measured:
[1] = tested on: PKA-Ala construct; assay: BRET assay, PKA-Ala construct; type: cell-based, Human
[2] = tested on: KGGKY construct; assay: BRET assay, Src pathway reporter (KGGKY construct) in HEK-293 cells; type: cell-based, Human
Description: Using a target sequence derived from a tyrosine in the L1-CAM cytoplasmic tail, a reporter was generated encoding a 12 amino acid insert, including a terminal tyrosine ([…], SEQ ID NO: 13). […] However, the Src-family inhibitor PP1 causes an increase in the BRET efficiency at doses above 20 μM while a related inhibitor PP2 has no effect at similar doses (FIG. 9B, results are shown mean±standard deviation, *P<0.01). […] Fibroblasts derived from wild-type (+/+src) or Src-null (−/−src) mice were treated with FGF, which activates indirectly Src-family kinases.

[3] = tested on: L1-SLADY BRET; assay: BRET assay, L1-SLADY BRET reporter in HEK-293 cells; type: cell-based, Human
Description: Another MAP kinase pathway reporter was constructed and tested using the methods described above and is outlined in the L1-SLADY BRET Data shown in FIGS. 5A, 5B, and 5C. The results of these figures are consistent with the other MAP kinase pathway data showing that the BRET system can be used as a MAP kinase pathway reporter.

[4] = tested on: L1-BRET construct; assay: BRET assay, L1-BRET construct transfected in HEK-293 cells; type: cell-based, Human; details: for effect on the BRET ratio of the L1-BRET construct: HEK-293 cells; for effect on the BRET ratio of the L1-BRET construct / effect on the BRET ratio of EGF-stimulated cells: n=5; for effect on the BRET ratio of EGF-stimulated cells: src-family kinase inhibitors; for effect on the decrease in BRET ratio following EGF stimulation: pre-treating cells, genistein 100 μM
[5] = tested on: endogenous L1-CAM; assay: Anti-phosphotyrosine immunoblot of endogenous L1-CAM, NGF-stimulated ND7 cells; type: cell-based; details: 100 μM
Description: (§1) Near-confluent cultures of HEK-293 cells, stably transfected with either an acceptor-insert-donor construct, or CHIM construct (SEQ ID NO: 2); or ND7 cells were harvested with trypsin-EDTA and resuspended to a density of 6×10^5 cells/ml. Aliquots (5 ml) of cell suspensions were added to 100 mm cell culture dishes (Corning Incorporated Life Sciences, Acton, Mass.) and incubated for 12 hrs at 37° C. Stably transfected HEK-293 cells were treated with genistein for 4 hrs at 37° C; and ND7 cells were treated with 100 μM PD98059 for 1 h and with 100 ng/ml NGF for 15 min. […] The protein concentrations of the supernatants were determined by using the BCA (bicinchoninic acid) protein assay (Pierce Chemical Company, Rockford, Ill.). […] Immobilized protein A beads were washed and resuspended in Laemnuli buffer, analyzed by SDS-PAGE, and transferred to nitrocellulose membrane. […]
To determine whether the MAPK signaling cascade can modulate tyrosine phosphorylation of full-length L1-CAM, the effect of MEK inhibitors was examined on ND7 cells stimulated with NGF. Cell lysates were immunoprecipitated with an anti-L1-CAM Ab and subsequently analyzed by immunoblotting (FIG. 2F) with an anti-phosphotyrosine Ab to detect phosphorylated L1-CAM (upper blot). […]

[6] = tested on: ankyrin B recruitment to the plasma membrane; assay: Ankyrin B recruitment to the plasma membrane (immunofluorescence), HEK-293 cells with L1-CAM and ankyrin-B GFP; type: cell-based, Human
Description: HEK-293 cells were transfected with cDNA encoding an amino-terminal myc-epitope tagged full-length wild-type neuronal adhesion protein L1-CAM and a carboxy-terminal GFP-tagged ankyrin B construct using lipofectamine reagents. […] For immunolocalization, cells were fixed for 10 min using 1% (w/v) paraformaldehyde in 60 mM Pipes, 25 mM Hepes, 10 mM EGTA, and 2 mM MgCl2. Staining was performed as described previously (Felsenfeld et al. (1999) Nat. Cell Biol. 1:200-6). Briefly, ankyrin B was detected by indirect immunofluorescence using a rabbit anti-GFP polyclonal Ab and a donkey anti-rabbit Ab conjugated to indodicarbocyanince Cy5. L1-CAM was detected by indirect immunofluorescence using a mouse anti-myc monoclonal Ab and a donkey anti-mouse Ab conjugated to indocarbocyanine Cy3. […] Images were analyzed using NIH ImageJ (National Institutes of Health, Bethesda, Md.). […] Signal maximum for ankyrin staining at the junction between cells was determined at the position of the maximal L1-CAM staining to ensure that membrane rather than juxtamembrane staining was quantified. Minima were determined from the regions of the line overlapping the cytoplasm of either of the two cells. Membrane localization index was determined using the equation index=max/(max-min) as described (Gil et al. (2003) J. Cell Biol. 162:719-30). […]

[7] = tested on: L1-BRET construct in ND7 cells; assay: BRET assay, L1-BRET construct in ND7 cells; type: cell-based
Description: (§2) To confirm that the effects of MEK inhibitors were due to the phosphorylation state of […] (SEQ ID NO: 1), the effect of PD98059 and U0126 was examined on the BRET ratio of the […] (SEQ ID NO: 3), […] (SEQ ID NO: 4), and […] (SEQ ID NO: 5) variant constructs. […] To determine whether components of the MAPK cascade are responsible for phosphorylating the FIGQY (SEQ ID NO: 12) sequence in other cell types, downstream of other RTKs, L1-BRET construct was transiently transfected into ND7 (neuroblastoma) and PC12 (pheochromocytoma) cells (Dunn et al. (1991) Brain Res. 545:80-86; Pang et al. (1995) J. Biol. Chem. 270:13585-13588).

[8] = tested on: […], […], […] variant constructs; type: cell-based, Human
[9] = tested on: L1-BRET construct in PC12 cells; assay: BRET assay, L1-BRET construct in PC12 cells; type: cell-based, rat; details: pre-treated
Description: as §2

[10] = tested on: PKA construct; assay: BRET assay, PKA construct in HEK-293 cells; type: cell-based, Human; details: kinase inhibitors
Description: A reporter was generated for PKA based on a target domain derived from fish connexin35 (Mitropoulou et al. (2003) J. Neurosci. Res. 72:147-157). The PKA insert target sequence ([…]) contains a carboxy-terminal serine phosphorylation target.

[11] = tested on: MEK; assay: In vitro kinase assay with purified MEK; type: biochemical; details: for phosphorylation in the presence of purified MEK: substrate
[12] = tested on: cerebellar granular neurons; assay: Neurite outgrowth assay on Ng-CAM; type: cell-based, mouse; details: 10 μM U0126
Description: (§3) Neurite outgrowth experiments were performed as described (Gil et al. (2003) J. Cell Biol. 162:719-30) with slight modification. A 1 cm-diameter circle in a 35 mm petri dish (Becton Dickinson) was coated with poly-L-lysine (5 μg/ml in phosphate-buffered saline (PBS) from Speciality Media, Phillipsburg, N.J.) for 1 hr at room temperature. After several washes with PBS, the coated area was dried under the hood. Aliquots of 1 μl of neural-glial cell adhesion molecule (Ng-CAM, Gil et al. (2003) J. Cell Biol. 162:719-30) at 50 μg/ml or laminin at 30 μg/ml (Becton Dickinson) were spotted on the coated area. Dishes were incubated for 1 hr at room temperature, washed several times with PBS and then blocked with 1% (w/v) bovine serum albumin (BSA). Cerebellar cells were prepared from P2-P4 mouse and plated on the prepared dishes in BME/B27/glucose/glutamine/Pen-Strep media at a cell density of 3×10^5 cells/ml. Peptides and U0126 were diluted in DMSO (10 mg/ml for peptides, 13 mM for U0126) and further diluted in media (final concentration 10 μg/ml peptide; 10 μM U0126) which was added to the cultures when the cells were plated. Cultures were incubated for 2 days and fixed with 4% paraformaldehyde.

[13] = tested on: myr-L1-BRET; assay: BRET assay, myristoylated construct (myr-L1-BRET) in HEK-293 cells; type: cell-based, Human; details: 20 μM U0126
Description: (§4) Near-confluent cultures of HEK-293 cells were harvested with trypsin-EDTA (0.05% trypsin, 0.53 mM EDTA; Invitrogen Corporation, Carlsbad, Calif.) and resuspended to a density of 2.5×10^5 cells/ml. Aliquots (200 μl) of cell suspensions were added to white 96-well culture plates (CulturPlate™; PerkinElmer Life Sciences, Boston, Mass.) and incubated for 12 hrs at 37° C. HEK-293 cells were transfected with 0.1 μg of DNA/well using lipofectamine reagents (Lipofectamine Plus and Lipofectamine™; Invitrogen) according to the manufacturer's instructions. After incubation of plates for 48 hrs at 37° C., the cells were washed once with warm Dulbecco's Modified Eagle's Medium (D-MEM) without phenol red (Invitrogen) supplemented with 25 mM Hepes (Invitrogen). […] The plates were immediately counted using the Fusion Universal Microplate Analyzer (PerkinElmer Life Sciences).
(§5) Bioluminescence resulting from Rluc emission was counted at 410 nm using a 370-450 nm band pass filter and the fluorescence of GFP2 was counted at 515 nm using a 500-530 nm band pass filter. The efficiency of energy transfer between Rluc and GFP2 is determined by dividing acceptor emission intensity (GFP2) by donor emission intensity (Rluc). […]

[14] = tested on: myr-FIGQH, myr-FIGQF; details: 20 μM U0126; tyrosine mutated to histidine or phenylalanine
Description: as §4, §5

[15] = tested on: cerebellar granular neurons; assay: Neurite outgrowth assay on laminin; type: cell-based, mouse; details: 10 μM U0126
Description: as §3

[16] = tested on: L1-BRET protein; assay: Anti-phosphotyrosine immunoblot of L1-BRET protein, stably transfected HEK-293 cells; type: cell-based, Human; details: pretreated with genistein 100 μM
Description: as §1
Immunoblot analysis was performed (FIG. 1G). Cell lysates were immunoprecipitated with an anti-GFP Ab and subsequently analyzed by immunoblotting with an anti-phosphotyrosine Ab to detect phosphorylated BRET constructs (upper blot). […] There was no phosphotyrosine detected in the CHIM construct (SEQ ID NO: 2) in the presence or absence of genistein, consistent with the idea that phosphorylation of the FIGQY (SEQ ID NO: 12) tyrosine is responsible for the changes observed in the spectrum of L1-BRET.

Compound: Nc1ncnc2c1ncn2[C@@H]1O[C@@H]2COP(O)(=S)O[C@H]2[C@H]1O (single isomer, unassigned) [Sp-cAMPs, Adenosine-3′,5′-cyclic monophosphorothioate, Sp-isomer]
effect on BRET ratio, serine mutated to alanine [1]: has no effect

Compound: COc1cccc(-c2cc(=O)c3ccccc3o2)c1N [PD98059]
effect on this reporter ([2]; 100 μM): no detectible effect | effect on the decrease in BRET ratio (FIG. 5A, 5B) [3]: reverses the decrease in BRET ratio | effect on the BRET ratio of the L1-BRET construct [4]: increased the BRET ratio of the L1-BRET construct in a dose-dependent manner | level of tyrosine phosphorylation of endogenous L1-CAM [5]: marked decrease in the level of tyrosine phosphorylation | effect on the EGF-induced decrease in ankyrin B recruitment ([6]; 100 μM PD98059 with 100 ng/ml EGF): reversed | change in the BRET ratio of the L1-BRET construct in ND7 cells [7]: increases in the BRET ratio | change in the BRET ratio of the variant constructs with MEK inhibitors [8]: no change in the BRET ratio | change in the BRET ratio of the L1-BRET construct in PC12 cells [9]: increases in the BRET ratio

Compound: Cc1ccc(-c2nn(C(C)(C)C)c3ncnc(N)c23)cc1 [PP1]
doses causing an increase in the BRET efficiency ([2]; dose response): above 20 μM | effect on the BRET ratio of EGF-stimulated cells [4]: had no effect on the BRET ratio | effect on FRET efficiency of the PKA reporter [10]: had no effect on FRET efficiency

Compound: CC(C)(C)n1nc(-c2ccc(Cl)cc2)c2c(N)ncnc21 [PP2]
effect on BRET efficiency at similar doses ([2]; doses similar to PP1 (above 20 μM)): has no effect | effect on the BRET ratio of EGF-stimulated cells [4]: had no effect on the BRET ratio

Compound: N#CC(=C(/N)Sc1ccccc1N)/C(C#N)=C(\N)Sc1ccccc1N [U0126]
effect on the increase in phosphorylation of MEKSBS and […] peptide ([11]; purified MEK): inhibited | mean neurite length [12]: reduces mean neurite length | effect on the BRET ratio of the L1-BRET construct [4]: increased the BRET ratio of the L1-BRET construct in a dose-dependent manner | change in BRET ratio of the myristoylated construct following inhibition of MEK [13]: increase in BRET ratio | change in the BRET ratio of the L1-BRET construct in ND7 cells [7]: increases in the BRET ratio | change in BRET ratio of mutated myristoylated constructs following inhibition of MEK [14]: abolishes the increase in BRET ratio | axon growth on laminin [15]: inhibited | change in the BRET ratio of the variant constructs with MEK inhibitors ([8]; 100 μM): no change in the BRET ratio | change in the BRET ratio of the L1-BRET construct in PC12 cells [9]: increases in the BRET ratio

Compound: O=c1c(-c2ccc(O)cc2)coc2cc(O)ccc12 [daidzein]
effect on the decrease in BRET ratio following EGF stimulation [4]: had no effect

Compound: COC(=O)C=Cc1cc(O)ccc1O [erbstatin analog, methyl 2,5-dihydroxycinnamate]
effect on the BRET ratio of the L1-BRET construct [4]: increased the BRET ratio of the L1-BRET construct in a dose-dependent manner

Compound: O=c1c(-c2ccc(O)cc2)coc2cc(O)cc(O)c12 [genistein]
effect on EGF-dependent decrease in BRET efficiency ([2]; 100 μM genistein, 100 ng/ml EGF): reversed | effect on the decrease in BRET ratio (FIG. 5A, 5B) [3]: reversing the decrease in BRET ratio | tyrosine phosphorylation of L1-BRET protein [16]: completely inhibited | effect on the decrease in BRET ratio following EGF stimulation [4]: reversed | change in the BRET ratio of the L1-BRET construct in ND7 cells [7]: increase in the BRET ratio

Compound: Biotin-ADPDHDHTGFLTEYVATRW-OH [MEKSBS]
phosphorylation in the presence of purified MEK [11]: phosphorylated

Compound: EGF: Epidermal growth factor (EGF), obtained from Sigma-Aldrich
level of ankyrin B recruited to the plasma membrane ([6]; 100 ng/ml EGF): decrease in the level of ankyrin B recruited to the plasma membrane

phosphorylation in the presence of purified MEK [11]: phosphorylated
Compound: KPLGSDDSLADY [L1-derived peptide phosphorylated by purified MEK]
